Experimental data taken from ChEMBL document CHEMBL5625178, “The topoisomerase II β -kinase associated with HIV-1 is a potential target for pyridine-bischalcones' anti-HIV-1 activity” (Eur J Med Chem, 2023).
Activity calls are given as the source filed them. The rule behind the calls is not given here.

Assays:
[1] = (§1) Inhibition of HIV-1 topoisomerase II beta kinase phosphorylation in the presence of […][gamma 32P]-ATP incubated for 30 mins by liquid scintillation counter analysis; parameters: species or system Human immunodeficiency virus 1
[2] = tested on: Human immunodeficiency virus 1; assay: Antiviral activity against HIV1 infected in human SUP-T1 cells assessed as inhibition of viral replication incubated for 5 hrs by sandwich ELISA method; format: functional, organism-based
[3] = Cytotoxicity against human SUP-T1 cells assessed as reduction in cell viability incubated for 16 hrs by MTT assay; format: toxicity, cell-based
[4] = tested on: Human immunodeficiency virus 1; assay: as §1; conditions: dose 0.25-600 pM
SUP-T1 = assay: Inhibition of Topoisomerase II beta serine phosphorylation in human SUP-T1 cells infected with HIV1 93IN101 by Western blot analysis; format: cell-based; conditions: dose 5-50 nM
[5] = tested on: Human immunodeficiency virus 1; assay: Antiviral activity against HIV1 93IN101 infected in human SUP-T1 cells assessed as suppression of proviral DNA synthesis at IC50 concentration incubated for 5 hrs by PCR analysis; format: functional, organism-based

| SMILES | IC50 [1] | inhibition [4] | Activity [2] | CC50 at 16 h [3] | inhibition (SUP-T1) | Activity [5] |
| --- | --- | --- | --- | --- | --- | --- |
| O=C1/C(=C/c2ccccn2)CCC/C1=C\c1ccccn1 | 0.55 nM | – | Dose-Dependent Effect | 920 nM | – | – |
| O=C1/C(=C/c2ccncc2)CCC/C1=C\c1ccncc1 | 0.44 nM | Dose-Dependent Effect | Dose-Dependent Effect | 820 nM | – | – |
| O=C1/C(=C/c2cccnc2)CCC/C1=C\c1cccnc1 | 0.32 nM | – | Dose-Dependent Effect | 960 nM | – | – |
| c1ccc(-c2cccnc2)cc1 | – | Dose-Dependent Effect | – | 1500 nM | – | – |
| Cc1cn([C@H]2C[C@H](N=[N+]=[N-])[C@@H](CO)O2)c(=O)[nH]c1=O | – | – | Dose-Dependent Effect | – | – | – |

More lines, main results first:

| IC50 [1] | inhibition [4] | SMILES | Activity [2] | CC50 at 16 h [3] | inhibition (SUP-T1) | Activity [5] |
| --- | --- | --- | --- | --- | --- | --- |
| 0.15 nM | – | C[n+]1ccc(/C=C2\CCC/C(=C\c3cc[n+](C)cc3)C2=O)cc1 | Dose-Dependent Effect | 2020 nM | Dose-Dependent Effect | Active |
| 0.14 nM | – | C[n+]1ccccc1/C=C1\CCC/C(=C\c2cccc[n+]2C)C1=O | Dose-Dependent Effect | 2040 nM | Dose-Dependent Effect | Active |
| 0.1 nM | – | C[n+]1cccc(/C=C2\CCC/C(=C\c3ccc[n+](C)c3)C2=O)c1 | Dose-Dependent Effect | 2120 nM | Dose-Dependent Effect | Active |
